# Results reported in patent US20070224674A1, “Selective Enrichiment of Microorganisms for Desired Metabolic Properties” (COMMONWEALTH SCIENTIFIC AND INDUSTRIAL RESEARCH OR, priority 2003, published 2007).
# Tests used:
# [1] = tested on: 1,3-propanediol-degrading microbial population (activated sludge); assay: Enrichment of activated sludge on 1,3-propanediol, growth from BOD; type: cell-based
# Method: Isolation of 1,3-propanediol-degrading microorganisms was used to test the feedback loop between feed flow rate and OUR. The feed medium was a defined medium designated 461S (Appendix I) which contained 1.0 g l^−1 1,3-propanediol and the initial flow rate was 43.5 ml h^−1. The operating temperature was 30° C. and pH 7.0. The medium was inoculated with ˜700 ml of activated sludge. The feed flow rate was increased by 20 ml h^−1 if the BOD remained constant for four vessel volumes. After an initial peak in the BOD, which was due to 1,3-propanediol being in excess, the BOD remained constant over a range of flow rates. […] This observation was expected because the inferred μmax of the population from the initial peak in BOD at the start of the experiment was ˜0.25 h^−1 (a doubling time of 2.8 hours). […] could be achieved with any microbial population that is established in the culture because there is a good probability that mutants which can grow at a higher rate will be selected at high feed flow rates.
# [2] = tested on: microorganisms from activated sludge; assay: Enrichment of activated sludge on 1-methyl-2-pyrrolidinone, growth from BOD; type: cell-based; conditions: 30° C., pH 7.0
# Method: Fresh activated sludge sourced from a wastewater treatment facility was used as the source of microorganisms for enrichment of 1-methyl-2-pyrrolidinone-utilising microbes. […] The enrichment process was performed at 30° C. and pH 7.0 (the pH was maintained at 7.0 by the automatic addition of a potassium hydroxide or hydrochloric acid solution as the alkali and acid, respectively). The feed flow rate was 60 ml h^−1.
# After the addition of the activated sludge to a vessel the BOD was high (greater than 500 mg l^−1). […] After 2 ml of 1-methyl-2-pyrrolidinone was added to the vessel (Arrow A; FIG. 8) a rapid rise in BOD was observed indicating exponential growth (FIG. 8). […] Growth is exponential between 1220 and 1460 minutes and μmax can therefore be calculated as 0.52 h^−1, which corresponds to a doubling time of 1.34 hours. The rapid decline in BOD (Arrow B, FIG. 8) was due to the oxygen consumption of the microbial population being greater than the amount of oxygen supplied to the culture.
# [3] = tested on: Isolate 2B; assay: 1-methyl-2-pyrrolidinone degradation in liquid batch culture; type: cell-based; conditions: for Residual 1-methyl-2-pyrrolidinone concentration: 1.0 g l^−1 added
# Method: (§1) The ability of the pure isolates to grow on 1-methyl-2-pyrrolidinone as the sole source of carbon in liquid culture was also evaluated (Table 3). The cultures were grown in 50 ml screw-capped plastic tubes that contained 10 ml of defined medium and 1.0 g l^−1 1-methyl-2-pyrrolidinone. To ensure each culture was inoculated with a consistent number of cells, 10 ml of medium was seeded with 100 μl of a single colony that had been resuspended in 1 ml of DM. The cultures were incubated at 30° C. shaking at 190 rpm. A single 10 ml culture was harvested by centrifugation at each time point and the supernatant kept for determination of the 1-methyl-2-pyrrolidinone concentration. The 1-methyl-2-pyrrolidinone concentrations were estimated using gas chromatography
# [4] = tested on: Isolate 2A; assay: as above; type: cell-based; conditions: for Residual 1-methyl-2-pyrrolidinone concentration: 1.0 g l^−1 added
# Method: as §1
# [5] = stated in words; cited from earlier work
# [6] = tested on: P. putida; assay: Growth on glucose and benzyl alcohol in defined medium, batch culture; type: cell-based, Pseudomonas putida F1
# Method: (§2) For these control experiments a steady state culture of an Escherichia coli BL21DE3 which was supplied by Novagen (Novagen Inc., Madison, Wis., USA) and was expected to grow on glucose only was used. The culture was established using 5 ml of an E. coli culture taken from a 100 ml shake flask culture which had been grown for 17 hours shaking at 200 rpm and 30° C. in defined medium with 1.0 g l^−1 glucose as the carbon source. Although the feed contained another substrate (benzyl alcohol), no growth on this substrate was expected because this microbial population was known to be unable to use this carbon source for growth. When steady state had been established, 10 mL of a 100 mL shake flask culture of Pseudomonas putida F1 was added. The P. putida F1 culture had been grown at 30° C. for 17 hours, with shaking at 200 rpm, in defined medium with 1.0 g l^−1 glucose as the carbon source. The P. putida F1 was supplied by the American Type Culture Collection (ATCC) and was expected to grow on benzyl alcohol and/or glucose. The OUR was expected to change as a result of the increased microbial activity after the addition of P. putida.
# (§3) The success of this control experiment was dependent upon the ability of E. coli to grow on glucose in DM and grow in DM in the presence of benzyl alcohol (i.e. benzyl alcohol is not toxic to E. coli). Also of key importance was the inability of E. coli to grow on benzyl alcohol. […] Although P. putida is well known for its ability to grow on a wide range of aromatic substrates (Wackett, & Hershberger, 2001), growth on benzyl alcohol has not been reported. The optical density at inoculation was calculated (based upon the optical density on the inocula) as 0.021 (E. coli) and 0.026 (P. putida). The cultures were incubated shaking at 200 rpm and 30° C. The optical density was measured at 600 nm after incubation for 23.5 and 75 hours.
# [7] = tested on: E. coli and P. putida continuous culture; assay: Continuous culture population shift, residual substrate by gas chromatography; type: cell-based, Escherichia coli BL21DE3, Pseudomonas putida F1; conditions: when BOD stabilised after addition of P. putida; feed 1.0 g l^−1 benzyl alcohol and 0.5 g l^−1 glucose, 30 ml h^−1
# Method: Based on the BOD it was clear that steady state had been attained (it is generally assumed that steady state has been established after turnover of at least three vessel volumes which, in this example would occur after 37.5 hours). After 125.7 hours (equivalent to 10 vessel volumes) of continuous operation, P. putida was added to the culture. Initially, there was no change in the BOD so to ensure P. putida was not being washed out of the vessel the feed flow rate was reduced from 60 ml h^−1 to 30 ml h^−1. […] This observation was confirmed by measuring the residual benzyl alcohol in the culture supernatant, which had started to decrease. As the P. putida population developed the BOD increased, peaking initially at nearly 1400 mg l^−1 before declining to 1050 mg l^−1 after which a second peak in the BOD was observed. […] After the second BOD peak, the BOD stabilised at 1040 mg l^−1 which was the expected BOD for a feed containing 0.5 g l^−1 glucose and 1.0 g l^−1 benzyl alcohol (see calculation below).
# The feed consisting of DM containing 0.5 g l^−1 glucose and 1.0 g l^−1 benzyl alcohol was fed into a vessel at 30° C. and pH 7. The feed flow rate was initially 60 ml h^−1. […] At the same time that the BOD stabilised the measured residual benzyl alcohol concentration was zero. […]
# [8] = tested on: E. coli; assay: Growth on glucose and benzyl alcohol in defined medium, batch culture; type: cell-based, Escherichia coli BL21DE3
# Method: as §2, §3
# [9] = tested on: Isolate 1D; assay: Dodecane degradation in liquid batch culture; type: cell-based; conditions: for Residual dodecane concentration: 0.75 g l^−1 added
# Method: (§4) The ability of the pure isolates to grow on dodecane as the sole source of carbon in liquid culture was also evaluated and is shown in Table 5. The cultures were grown in 50 ml screw-capped plastic tubes that contained 10 ml of defined medium and 0.75 g l^−1 dodecane. To ensure each culture was inoculated with a consistent number of cells, 10 ml of medium was inoculated with 100 μl of a single colony that had been resuspended in 1 ml of DM. The cultures were incubated at 30° C. shaking at 190 rpm. Residual dodecane was extracted by the addition of 20 ml of hexane to a single 10 ml culture at each time point. The tube was shaken vigorously for one minute and after phase separation, the upper layer was kept for determination of the dodecane concentration. The dodecane concentrations were estimated using gas chromatography.
# [10] = tested on: Isolate 1B; assay: Dodecane degradation in liquid batch culture; type: cell-based; conditions: for Residual dodecane concentration: 0.75 g l^−1 added
# Method: as §4
# [11] = tested on: Isolate 1C; assay: Dodecane degradation in liquid batch culture; type: cell-based; conditions: for Residual dodecane concentration: 0.75 g l^−1 added
# Method: as §4
# [12] = benzyl alcohol 1.0 g l^−1 only carbon source, 23.5 hours
# [13] = benzyl alcohol 1.0 g l^−1 only carbon source, 75 hours
# [14] = benzyl alcohol 1.0 g l^−1 with glucose 0.1 g l^−1, 23.5 hours
# [15] = benzyl alcohol 1.0 g l^−1 with glucose 0.1 g l^−1, 75 hours
# [16] = glucose 0.1 g l^−1 only carbon source, 23.5 hours incubation, 30° C.
# [17] = glucose 0.1 g l^−1 only carbon source, 75 hours incubation, 30° C.
# [18] = batch culture, over a 168 hours period
smiles,measurement,setting,value
"OCCCO [1,3-propanediol]",Doubling time,[1]; corresponds to inferred μmax,2.8 h
same,Inferred μmax of the population,"[1]; from the initial peak in BOD, 1.0 g l^−1 in feed, 30° C., pH 7.0",~0.25 h⁻¹
CN1CCCC1=O [1-methyl-2-pyrrolidinone],μmax of the population growing on the substrate,[2]; calculated from exponential BOD rise between 1220 and 1460 minutes,0.52 h⁻¹
same,Doubling time,[2]; corresponds to μmax,1.34 h
same,Residual 1-methyl-2-pyrrolidinone concentration,[3]; 24 h after inoculation,ND (Not detected (limit of detection · 20 mg l^−1))
same,Residual 1-methyl-2-pyrrolidinone concentration,[3]; 48 h after inoculation,ND (Not detected (limit of detection · 20 mg l^−1))
same,Residual 1-methyl-2-pyrrolidinone concentration,[3]; 72 h after inoculation,ND (Not detected (limit of detection · 20 mg l^−1))
same,Residual 1-methyl-2-pyrrolidinone concentration,[3]; 96 h after inoculation,ND (Not detected (limit of detection · 20 mg l^−1))
same,Residual 1-methyl-2-pyrrolidinone concentration,[3]; 168 h after inoculation,ND (Not detected (limit of detection · 20 mg l^−1))
same,Time to completely degrade 1.0 g l^−1 1-methyl-2-pyrrolidinone,[3]; batch culture,≤ 24 h
same,Residual 1-methyl-2-pyrrolidinone concentration,[4]; 24 h after inoculation,NDa (Not detected (limit of detection · 20 mg l^−1))
same,Residual 1-methyl-2-pyrrolidinone concentration,[4]; 48 h after inoculation,ND (Not detected (limit of detection · 20 mg l^−1))
same,Residual 1-methyl-2-pyrrolidinone concentration,[4]; 72 h after inoculation,ND (Not detected (limit of detection · 20 mg l^−1))
same,Residual 1-methyl-2-pyrrolidinone concentration,[4]; 96 h after inoculation,ND (Not detected (limit of detection · 20 mg l^−1))
same,Residual 1-methyl-2-pyrrolidinone concentration,[4]; 168 h after inoculation,ND (Not detected (limit of detection · 20 mg l^−1))
same,Time to completely degrade 1.0 g l^−1 1-methyl-2-pyrrolidinone,[4]; batch culture,≤ 24 h
same,Solubility in water,[5],soluble in water
"OCc1ccccc1 [Benzyl alcohol, benzyl alcohol]",Optical density at 600 nm,[6]; [12],0.021
same,Optical density at 600 nm,[6]; [13],0.417
same,Optical density at 600 nm,[6]; [14],0.042
same,Optical density at 600 nm,[6]; [15],0.353
same,Residual benzyl alcohol concentration,[7],zero
same,Optical density at 600 nm,[8]; [12],0.027
same,Optical density at 600 nm,[8]; [13],0.024
same,Optical density at 600 nm,[8]; [14],0.102
same,Optical density at 600 nm,[8]; [15],0.097
"O=C[C@H](O)[C@@H](O)[C@H](O)[C@H](O)CO [Glucose, glucose]",Optical density at 600 nm,[6]; [16],0.170
same,Optical density at 600 nm,[6]; [17],0.138
same,Optical density at 600 nm,[8]; [16],0.116
same,Optical density at 600 nm,[8]; [17],0.102
CCCCCCCCCCCC [dodecane],Residual dodecane concentration,[9]; 24 h after inoculation,1080 mg/L
same,Residual dodecane concentration,[9]; 48 h after inoculation,920 mg/L
same,Residual dodecane concentration,[9]; 72 h after inoculation,740 mg/L
same,Residual dodecane concentration,[9]; 96 h after inoculation,410 mg/L
same,Residual dodecane concentration,[9]; 168 h after inoculation,310 mg/L
same,Dodecane added to the culture that was used,[9]; [18],50 to 60%
same,Residual dodecane concentration,[10]; 24 h after inoculation,920 mg/L
same,Residual dodecane concentration,[10]; 48 h after inoculation,160 mg/L
same,Residual dodecane concentration,[10]; 72 h after inoculation,420 mg/L
same,Residual dodecane concentration,[10]; 96 h after inoculation,270 mg/L
same,Residual dodecane concentration,[10]; 168 h after inoculation,290 mg/L
same,Dodecane added to the culture that was used,[10]; [18],50 to 60%
same,Residual dodecane concentration,[11]; 24 h after inoculation,630 mg/L
same,Residual dodecane concentration,[11]; 48 h after inoculation,620 mg/L
same,Residual dodecane concentration,[11]; 72 h after inoculation,440 mg/L
same,Residual dodecane concentration,[11]; 96 h after inoculation,440 mg/L
same,Residual dodecane concentration,[11]; 168 h after inoculation,280 mg/L
same,Dodecane added to the culture that was used,[11]; [18],50 to 60%
same,Solubility in water,[5],practically insoluble in water
